Like-named read-outs stand apart in the source and are kept apart here.
Legend:
[1] = test system: MCF-7; test: MTT cytotoxicity assay, MCF-7; assay type: cell-based; details: Homo sapiens
[2] = test system: HepG2; test: MTT cytotoxicity assay, HepG2; assay type: cell-based, human
[3] = test system: HCT-116; test: MTT cytotoxicity assay, HCT-116; assay type: cell-based; details: Homo sapiens
[4] = test system: WRL-68; test: cells; assay type: cell-based; details: for IC50: Homo sapiens; for toxicity against normal cell line: WRL-68, result in words
[5] = test system: PC3 cells; details: read-out: IC50 proliferation rate of PC3 cells; cited from earlier work
[6] = MCF7, 48 h, read-out: IC50 against MCF-7 μM 48 h
[7] = MCF7, 72 h, read-out: IC50 against MCF-7 μM 72 h
[8] = Homo sapiens, HepG2, 48 h, read-out: IC50 against HepG2 μM 48 h, MTT, 48 h
[9] = Homo sapiens, HepG2, 72 h, read-out: IC50 against HepG2 μM 72 h, MTT, 72 h
[10] = HCT-116, 48 h, read-out: IC50 against HCT-116 μM 48 h
[11] = HCT-116, 72 h, read-out: IC50 against HCT-116 μM 72 h
[12] = WRL68, 48 h, read-out: IC50 against WRL-68 μM 48 h
[13] = WRL68, 72 h, read-out: IC50 against WRL-68 μM 72 h

Structure (SMILES) | IC50 [1, 6] [µM] | IC50 [1, 7] [µM] | IC50 [2, 8] [µM] | IC50 [2, 9] [µM] | IC50 [3, 10] [µM] | IC50 [3, 11] [µM] | IC50 [4, 12] [µM] | IC50 [4, 13] [µM] | toxicity against normal cell line [4] | IC50 [5] [µM] | IC50 ([2]; read-out: IC50 against HepG2 μM 72 h, MTT, 72 h) [µM]
COc1ccc(-c2nc(OCc3cn(CC(=O)Nc4ccc(Br)cc4)nn3)c3ccccc3n2)cc1 [Compound 8c, N-(4-bromophenyl)-2-(4-(((2-(4-methoxyphenyl)quinazolin-4-yl)oxy)methyl)-1H-1,2,3-triazol-1-yl)acetamide] | 111 | 62.2 | 30.4 | 13 | 47.8 | 12.2 | 106 | 74.4 |  |  | 
COc1cccc2c1C(=O)c1c(O)c3c(c(O)c1C2=O)C[C@@](O)(C(=O)CO)C[C@@H]3O[C@H]1C[C@H](N)[C@H](O)[C@H](C)O1 [Doxorubicin, reference compound] |  |  | 1.96 | 1.31 |  | 1.21 | 2.19 | 1.73 |  |  | 
Cc1ccc(NC(=O)Cn2cc(COc3nc(-c4ccc(Cl)cc4)nc4ccccc34)nn2)cc1 [Compound 8i, 2-(4-(((2-(4-chlorophenyl)quinazolin-4-yl)oxy)methyl)-1H-1,2,3-triazol-1-yl)-N-(p-tolyl)acetamide] | 221 | 97 | 55.1 | 10.9 | 48.1 | 24.2 | 117 | 86.4 |  |  | 
COc1ccc(-c2nc(OCc3cn(CC(=O)Nc4ccccc4)nn3)c3ccccc3n2)cc1 [Compound 8a, 2-(4-(((2-(4-methoxyphenyl)quinazolin-4-yl)oxy)methyl)-1H-1,2,3-triazol-1-yl)-N-phenylacetamide] | 38.1 | 13 | 17.5 | 7.94 | 10.7 | 5.33 | 112 | 94.1 | limited toxicity |  | 
O=C(Cn1cc(COc2nc(-c3ccc(Cl)cc3)nc3ccccc23)nn1)Nc1ccc(Br)cc1 [Compound 8h, N-(4-bromophenyl)-2-(4-(((2-(4-chlorophenyl)quinazolin-4-yl)oxy)methyl)-1H-1,2,3-triazol-1-yl)acetamide] | 34.1 | 20.6 | 90.5 | 8.55 | 42.3 | 41.8 | 115 | 89.5 |  |  | 
CNC(=O)c1cc(Oc2ccc(NC(=O)Nc3ccc(Cl)c(C(F)(F)F)c3)cc2)ccn1 [sorafenib] |  |  |  |  |  |  |  |  |  | 17.3 | 
COc1ccc(-c2nc(OCc3cn(CC(=O)Nc4ccc(C)cc4)nn3)c3ccccc3n2)cc1 [Compound 8d, 2-(4-(((2-(4-methoxyphenyl)quinazolin-4-yl)oxy)methyl)-1H-1,2,3-triazol-1-yl)-N-(p-tolyl)acetamide] | 39.9 | 20 | 59.2 | 15 | 30.1 | 8.97 | 113 | 83.5 |  |  | 
COc1cc(-c2nc(OCc3cn(CC(=O)Nc4ccccc4)nn3)c3ccccc3n2)cc(OC)c1OC [Compound 8k, N-phenyl-2-(4-(((2-(3,4,5-trimethoxyphenyl)quinazolin-4-yl)oxy)methyl)-1H-1,2,3-triazol-1-yl)acetamide] | 24.2 | 11.3 | 72.4 | 16.2 | 69 | 41.1 | 117 | 84.4 |  |  | 
O=C(Cn1cc(COc2nc(-c3ccc(Cl)cc3)nc3ccccc23)nn1)Nc1ccccc1 [Compound 8g, 2-(4-(((2-(4-chlorophenyl)quinazolin-4-yl)oxy)methyl)-1H-1,2,3-triazol-1-yl)-N-phenylacetamide] | 67.2 | 20.9 | 38.8 | 13.2 | 49.2 | 24.5 | 103 | 85.1 |  |  | 
COc1cc(-c2nc(OCc3cn(CC(=O)Nc4ccc(C)cc4)nn3)c3ccccc3n2)cc(OC)c1OC [Compound 8l, N-(p-tolyl)-2-(4-(((2-(3,4,5-trimethoxyphenyl)quinazolin-4-yl)oxy)methyl)-1H-1,2,3-triazol-1-yl)acetamide] | 28.8 | 26.5 | 41.4 |  | 64.3 | 29.4 | 101 | 71.3 |  |  | 
COc1ccc(-c2nc(OCc3cn(CC(=O)Nc4ccc(Cl)cc4)nn3)c3ccccc3n2)cc1 [Compound 8b, N-(4-chlorophenyl)-2-(4-(((2-(4-methoxyphenyl)quinazolin-4-yl)oxy)methyl)-1H-1,2,3-triazol-1-yl)acetamide] | 25.9 | 20.9 | 78.9 | 19.8 | 77.1 | 68.6 | 108 | 89.8 |  |  | 
COc1ccc(-c2nc(OCc3cn(CC(=O)Nc4ccc([N+](=O)[O-])cc4C)nn3)c3ccccc3n2)cc1 [Compound 8f, 2-(4-(((2-(4-methoxyphenyl)quinazolin-4-yl)oxy)methyl)-1H-1,2,3-triazol-1-yl)-N-(2-methyl-4-nitrophenyl)acetamide] | 21.3 | 18 | 26.1 | 9.15 | 36.2 | 23.9 | 100 | 90.3 | limited toxicity |  | 
O=C(Cn1cc(COc2nc(-c3ccc(Cl)cc3)nc3ccccc23)nn1)Nc1cccc(Br)c1 [Compound 8j, N-(3-bromophenyl)-2-(4-(((2-(4-chlorophenyl)quinazolin-4-yl)oxy)methyl)-1H-1,2,3-triazol-1-yl)acetamide] | 164 | 55.8 | 55.8 | 8.55 | 176 | 54.2 | 110 | 78.6 |  |  | 12.7
COc1ccc(-c2nc(OCc3cn(CC(=O)Nc4cccc(OC)c4)nn3)c3ccccc3n2)cc1 [Compound 8e, N-(3-methoxyphenyl)-2-(4-(((2-(4-methoxyphenyl)quinazolin-4-yl)oxy)methyl)-1H-1,2,3-triazol-1-yl)acetamide] | 35.2 | 23 | 46 | 10.2 | 160 | 90.6 | 112 |  |  |  | 

From publication PMC9975091 (Heliyon, 2023)
